Values quoted from earlier work in US20250339362A1, “SKINCARE SUPPLEMENTS” (Natals, Inc., priority 2024, published 2025).
Where two headings read alike, the source gives them in different places.

Test system: male and female subjects ages 35-64 years
Conditions: 120 mg HA capsule orally once per day, Visioscan

Substance: hyaluronic acid [HA]
- facial skin smoothness: Statistical significance compared to placebo (Week 8): No
- facial skin smoothness: Statistical significance compared to placebo (Week 12): statistically significant reduction in smoothness
